In patent publication US9109004B2, “Progesterone receptor antagonists” (Bayer Intellectual Property GmbH, priority 2010, dated 2015):

How the values were obtained:
[1] = molecular target: T1, human progesterone receptor A (Homo sapiens, UniProt P06401); assay: Progesterone-receptor-antagonistic action in stably transfected SK-N-MC cells, MTV-LUC reporter (PR-A); type: cell-based; conditions: antagonistic potency vs 0.1 nmol/l promegestone, 24 hours, luciferase
T1 construct: expressed in transfected cells; host or cells: SK-N-MC human neuroblastoma cells, stably transfected
T1 sequence (P06401 1-769 isoform P06401-2): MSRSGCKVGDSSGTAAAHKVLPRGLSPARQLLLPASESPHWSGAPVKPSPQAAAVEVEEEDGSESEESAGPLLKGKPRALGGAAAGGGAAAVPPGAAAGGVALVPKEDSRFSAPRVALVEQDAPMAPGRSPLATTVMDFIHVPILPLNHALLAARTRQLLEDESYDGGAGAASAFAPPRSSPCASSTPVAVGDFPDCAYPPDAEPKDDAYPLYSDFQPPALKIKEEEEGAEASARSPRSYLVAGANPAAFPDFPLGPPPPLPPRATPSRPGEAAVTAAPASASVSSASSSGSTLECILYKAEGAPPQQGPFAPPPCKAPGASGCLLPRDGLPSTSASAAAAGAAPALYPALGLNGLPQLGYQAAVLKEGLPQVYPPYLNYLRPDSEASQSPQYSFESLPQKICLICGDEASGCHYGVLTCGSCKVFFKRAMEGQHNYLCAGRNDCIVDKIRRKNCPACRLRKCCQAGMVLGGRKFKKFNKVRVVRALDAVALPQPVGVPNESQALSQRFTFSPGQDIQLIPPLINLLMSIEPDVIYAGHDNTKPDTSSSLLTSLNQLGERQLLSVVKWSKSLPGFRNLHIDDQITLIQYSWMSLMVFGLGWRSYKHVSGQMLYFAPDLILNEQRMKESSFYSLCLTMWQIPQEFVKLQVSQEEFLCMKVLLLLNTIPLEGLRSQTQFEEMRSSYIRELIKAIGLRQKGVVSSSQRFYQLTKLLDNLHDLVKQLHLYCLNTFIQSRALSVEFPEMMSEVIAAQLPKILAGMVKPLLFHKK
Procedure, shortened: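 SK-N-MC neuroblastoma cells stably expressing human PR-B or PR-A plus MMTV-LUC reporter, treated 24 h with 0.1 nmol/l promegestone plus test compound at 0.01 nmol/l–1 μmol/l. Luciferase in lysates read as RLU; values as % efficacy and IC50.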

[2] = molecular target: T2, human progesterone receptor B (Homo sapiens, UniProt P06401); assay: Progesterone-receptor-antagonistic action in stably transfected SK-N-MC cells, MTV-LUC reporter (PR-B); type: cell-based; conditions: antagonistic potency vs 0.1 nmol/l promegestone, 24 hours, luciferase
T2 construct: expressed in transfected cells; host or cells: SK-N-MC human neuroblastoma cells, stably transfected
T2 sequence (P06401 1-933): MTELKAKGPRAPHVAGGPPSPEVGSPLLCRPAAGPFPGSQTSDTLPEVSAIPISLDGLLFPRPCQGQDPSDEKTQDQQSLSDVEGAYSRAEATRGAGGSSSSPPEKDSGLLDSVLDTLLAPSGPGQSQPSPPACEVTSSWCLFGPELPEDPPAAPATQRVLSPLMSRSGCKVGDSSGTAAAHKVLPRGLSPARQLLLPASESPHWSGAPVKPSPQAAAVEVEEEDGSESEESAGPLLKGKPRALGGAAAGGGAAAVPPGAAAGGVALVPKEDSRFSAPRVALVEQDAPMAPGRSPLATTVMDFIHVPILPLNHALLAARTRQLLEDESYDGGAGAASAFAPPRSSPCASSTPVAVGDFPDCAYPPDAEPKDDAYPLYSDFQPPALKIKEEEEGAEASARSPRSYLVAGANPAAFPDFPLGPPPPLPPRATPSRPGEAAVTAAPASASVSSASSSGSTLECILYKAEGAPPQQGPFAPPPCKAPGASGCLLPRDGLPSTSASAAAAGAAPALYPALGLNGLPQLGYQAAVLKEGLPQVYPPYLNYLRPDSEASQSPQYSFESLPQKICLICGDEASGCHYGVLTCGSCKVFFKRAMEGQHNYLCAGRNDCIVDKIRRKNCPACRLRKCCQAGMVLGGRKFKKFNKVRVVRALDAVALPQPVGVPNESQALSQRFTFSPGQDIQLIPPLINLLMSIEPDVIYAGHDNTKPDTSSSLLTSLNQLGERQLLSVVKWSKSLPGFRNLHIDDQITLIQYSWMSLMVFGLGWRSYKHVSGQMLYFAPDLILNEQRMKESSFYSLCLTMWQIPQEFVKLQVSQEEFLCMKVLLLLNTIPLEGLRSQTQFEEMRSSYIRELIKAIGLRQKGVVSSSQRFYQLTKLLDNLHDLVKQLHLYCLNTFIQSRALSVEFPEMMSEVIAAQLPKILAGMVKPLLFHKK
Experimental: Progesterone-Receptor-Antagonistic Action in Stable Transfectants of Human Neuroblastoma Cells (SK-N-MC Cells) with the Human Progesterone A or Progesterone B Receptor and an MTV-LUC Reporter Construct
SK-N-MC cells (human neuroblastoma cells) that have been stably transfected with plasmids that express the human progesterone receptor B (pRChPR-B-neo) or the human progesterone receptor A (pRChPR-A-neo) and a reporter construct (pMMTV-LUC), were incubated for 24 hours either in the absence (negative control) or in the presence of increasing amounts of the particular test compound (0.01 nmol/l, 0.1 nmol/l, 1 nmol/l, 10 nmol/l, 100 nmol/l and 1 μmol/l), to determine the agonistic efficacy. As positive control of reporter gene induction, the cells were treated with the synthetic gestagen promegestone (0.01 nmol/l, 0.1 nmol/l, 1 nmol/l, 10 nmol/l, 100 nmol/l and 1 μmol/l). For determination of the antagonistic activity, the cells were treated with 0.1 nmol/l promegestone and additionally with increasing amounts of the particular test compound (0.01 nmol/l, 0.1 nmol/l, 1 nmol/l, 10 nmol/l, 100 nmol/l and 1 μmol/l). The activity of the reporter gene LUC (LUC=luciferase) was determined in the cell lysates and was measured as RLU (relative light units). All measured values are given as % efficacy and as EC50 or IC50 concentrations.

IC50 [1] [nM] | IC50 [2] [nM] | SMILES
2.3 | 1.2 | CN(C)C(=O)c1ccc([C@H]2C[C@@]3(C)[C@@H](CC[C@@]3(O)C(F)(F)C(F)(F)F)[C@@H]3CCC4=CC(=O)CCC4=C32)cc1 [Example 2, 4-[(11β,17β)-17-Hydroxy-3-oxo-17-(pentafluoroethyl)estra-4,9-dien-11-yl]-N,N-dimethylbenzamide]
24 | 44 | CN1CCN(C(=O)c2ccc([C@H]3C[C@@]4(C)[C@@H](CC[C@@]4(O)C(F)(F)C(F)(F)F)[C@@H]4CCC5=CC(=O)CCC5=C43)cc2)CC1 [Example 3, (11β,17β)-17-hydroxy-11-{4-[(4-methylpiperazin-1-yl)carbonyl]phenyl}-17-(pentafluoroethyl)estra-4,9-dien-3-one]
47 | 33 | CN(C)CCCNC(=O)c1ccc([C@H]2C[C@@]3(C)[C@@H](CC[C@@]3(O)C(F)(F)C(F)(F)F)[C@@H]3CCC4=CC(=O)CCC4=C32)cc1 [Example 8, N-[3-(dimethylamino)propyl]-4-[(11β,17β)-17-hydroxy-3-oxo-17-(pentafluoroethyl)estra-4,9-dien-11-yl]benzamide]
0.62 | 1.6 | CC(C)(C)OC(=O)N1CCN(C(=O)c2ccc([C@H]3C[C@@]4(C)[C@@H](CC[C@@]4(O)C(F)(F)C(F)(F)F)[C@@H]4CCC5=CC(=O)CCC5=C43)cc2)CC1 [Example 4, tert-butyl-4-{4-[(11β,17β)-17-hydroxy-3-oxo-17-(pentafluoroethyl)estra-4,9-dien-11-yl]benzoyl}piperazine-1-carboxylate]
0.7 | 1 | COC(=O)c1ccccc1NC(=O)c1ccc([C@H]2C[C@@]3(C)[C@@H](CC[C@@]3(O)C(F)(F)C(F)(F)F)[C@@H]3CCC4=CC(=O)CCC4=C32)cc1 [Example 10, methyl-2-({4-[(11β,17β)-17-hydroxy-3-oxo-17-(pentafluoroethyl)estra-4,9-dien-11-yl]benzoyl}amino)benzoate]
54 | 30 | CN(C)CCNC(=O)c1ccc([C@H]2C[C@@]3(C)[C@@H](CC[C@@]3(O)C(F)(F)C(F)(F)F)[C@@H]3CCC4=CC(=O)CCC4=C32)cc1 [Example 7, N-[2-(dimethylamino)ethyl]-4-[(11β,17β)-17-hydroxy-3-oxo-17-(pentafluoroethyl)estra-4,9-dien-11-yl]benzamide]
23 | 18 | CN(C)CCN(C)C(=O)c1ccc([C@H]2C[C@@]3(C)[C@@H](CC[C@@]3(O)C(F)(F)C(F)(F)F)[C@@H]3CCC4=CC(=O)CCC4=C32)cc1 [Example 9, N-[2-(dimethylamino)ethyl]-4-[(11β,17β)-17-hydroxy-3-oxo-17-(pentafluoroethyl)estra-4,9-dien-11-yl]-N-methylbenzamide]
47 | 120 | C[C@]12C[C@H](c3ccc(C(=O)N4CCNCC4)cc3)C3=C4CCC(=O)C=C4CC[C@H]3[C@@H]1CC[C@@]2(O)C(F)(F)C(F)(F)F [Example 73, (11β,17β)-17-Hydroxy-17-(pentafluoroethyl)-11-[4-(piperazin-1-ylcarbonyl)phenyl]estra-4,9-dien-3-one]
23 | 10 | C[C@]12C[C@H](c3ccc(C(=O)N4CCC(C(=O)O)CC4)cc3)C3=C4CCC(=O)C=C4CC[C@H]3[C@@H]1CC[C@@]2(O)C(F)(F)C(F)(F)F [Example 75, 1-{4-[(11β,17β)-17-Hydroxy-3-oxo-17-(pentafluoroethyl)estra-4,9-dien-11-yl]benzoyl}piperidine-4-carboxylic acid]
4.7 | 5 | C[C@]12C[C@H](c3ccc(C(=O)N4CCCCC4)cc3)C3=C4CCC(=O)C=C4CC[C@H]3[C@@H]1CC[C@@]2(O)C(F)(F)C(F)(F)F [Example 5, (11β,17β)-17-hydroxy-17-(pentafluoroethyl)-11-[4-(piperidin-1-ylcarbonyl)phenyl]estra-4,9-dien-3-one]
6.7 | 12 | CC(=O)N1CCN(C(=O)c2ccc([C@H]3C[C@@]4(C)[C@@H](CC[C@@]4(O)C(F)(F)C(F)(F)F)[C@@H]4CCC5=CC(=O)CCC5=C43)cc2)CC1 [Example 74, (11β,17β)-11-{4-[(4-Acetylpiperazin-1-yl)carbonyl]phenyl}-17-hydroxy-17-(pentafluoroethyl)estra-4,9-dien-3-one]
9.1 | 11 | COC(=O)C1CCN(C(=O)c2ccc([C@H]3C[C@@]4(C)[C@@H](CC[C@@]4(O)C(F)(F)C(F)(F)F)[C@@H]4CCC5=CC(=O)CCC5=C43)cc2)CC1 [Example 6, methyl-1-{4-[(11β,17β)-17-hydroxy-3-oxo-17-(pentafluoroethyl)estra-4,9-dien-11-yl]benzoyl}piperidine-4-carboxylate]
39 |  | C[C@]12C[C@H](c3ccc(C(=O)N4CCOCC4)cc3)C3=C4CCC(=O)C=C4CC[C@H]3[C@@H]1CC[C@@]2(O)C(F)(F)C(F)(F)F [Example 29, (11β,17β)-17-hydroxy-11-[4-(morpholin-4-ylcarbonyl)phenyl]-17-(pentafluoroethyl)estra-4,9-dien-3-one]
9.6 |  | C[C@]12C[C@H](c3ccc(C(=O)Nc4ccc(C(=O)O)cc4)cc3)C3=C4CCC(=O)C=C4CC[C@H]3[C@@H]1CC[C@@]2(O)C(F)(F)C(F)(F)F [Example 78, 4-({4-[(11β,17β)-17-Hydroxy-3-oxo-17-(pentafluoroethyl)estra-4,9-dien-11-yl]benzoyl}amino)benzoic acid]
24 |  | C[C@]12C[C@H](c3ccc(C(=O)NCCCN4CCOCC4)cc3)C3=C4CCC(=O)C=C4CC[C@H]3[C@@H]1CC[C@@]2(O)C(F)(F)C(F)(F)F [Example 13, 4-[(11β,17β)-17-hydroxy-3-oxo-17-(pentafluoroethyl)estra-4,9-dien-11-yl]-N-[3-(morpholin-4-yl)propyl]benzamide]
94 |  | CN1CCN(CCNC(=O)c2ccc([C@H]3C[C@@]4(C)[C@@H](CC[C@@]4(O)C(F)(F)C(F)(F)F)[C@@H]4CCC5=CC(=O)CCC5=C43)cc2)CC1 [Example 62, 4-[(11β,17β)-17-hydroxy-3-oxo-17-(pentafluoroethyl)estra-4,9-dien-11-yl]-N-[2-(4-methylpiperazin-1-yl)ethyl]benzamide]
